Experimental findings from patent US11000033B2, “Ketone or oxime compound, and herbicide” (NISSAN CHEMICAL CORPORATION, priority 2014, dated 2021) are described below.

Structures are written as SMILES.

Data set [1] concerns Monochoria vaginalis. The data set is described as follows: Test Example 1: herbicidal activity, application before weed generation in submerged conditions (symbol C). The class given is in vivo. The note with it: application herbicide amount 320 g/ha. The essentials:
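Application before weed emergence: an aqueous dilution of the emulsion formulation was poured onto the surface of 4 cm-deep floodwater on the day of sowing. Effect was judged after 3 weeks (greenhouse, 25–30 °C).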

The subject of data set [2] is Monochoria vaginalis. The experiment in a line: Test Example 2: herbicidal activity, application during weed generation in submerged conditions (symbol C). The note with it: Table 23; application herbicide amount 320 g/ha; grade 0-5 by criteria of Test Example 1. The data set is classed as in vivo. The essentials:
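Steps: fill pots with alluvial soil; add water to 4 cm depth; co-sow the three weeds; grow at 25° C. to 30° C. under glass; at 1–2 leaves, dose the floodwater with diluted emulsion; rate damage visually after 3 weeks.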

The subject of data set [3] is directly sowed rice plant. The experiment in a line: Test Example 3: effect on crop by foliage application, Wagner pot (symbol b). The class given is in vivo. As to conditions: application herbicide amount 320 g/ha. The essentials: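 Wagner pot (1/10000 are), alluvial soil, submerged 0.1–0.5 cm; sown E. crus-galli var. crus-galli, L. chinensis, C. difformis, rice; greenhouse 25–30 °C.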

Data set [4] deals with Setaria viridis. The experiment in a line: Test Example 4: herbicidal effect by soil treatment (symbol G). The data set is classed as in vivo. The note with it: application herbicide amount 320 g/ha. The method, boiled down: (§1)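 Seeds were sown in sterilized diluvial soil, covered with about 1.5 cm of soil, and the soil surface was sprayed with a water-diluted emulsion of the compound at a predetermined rate. Plants grew in a greenhouse at 25° C. to 30° C.; effects were scored visually 3 weeks after application.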

Data set [5] concerns Avena fatua. The experiment in a line: Test Example 4: herbicidal effect by soil treatment (symbol I). The data set is classed as in vivo. The note with it: application herbicide amount 320 g/ha. The essentials:
as §1

Data set [6] concerns Chenopodium album. The experiment in a line: Test Example 4: herbicidal effect by soil treatment (symbol O). The class given is in vivo. As to conditions: application herbicide amount 320 g/ha. The essentials: as §1
The test system of data set [7] is beet. The experiment in a line: Test Example 4: effect on crop by soil treatment (symbol f). The data set is classed as in vivo. As to conditions: application herbicide amount 320 g/ha. The essentials: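 Plants grew in a 25° C. to 30° C. greenhouse after spot-sowing of seeds, including beet, rapeseed, wheat and rice, into sterilized diluvial soil under roughly 1.5 cm of cover soil.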

In data set [8] the test system is Echinochloa crus-galli var. crus-galli. The experiment in a line: Test Example 5: herbicidal effect by foliage application, plastic box (symbol H). The data set is classed as in vivo. The note with it: 320 g/ha, 3 weeks after application. The method, boiled down: (§2)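 Post-emergence spray; diluvial soil (sterilized), ~1.5 cm seed cover; greenhouse 25–30° C; 14-day-old plants; water-diluted emulsion at predetermined dose; visual score at 3 wk post-treatment.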

The subject of data set [9] is Apera spica-venti. The data set is described as follows: Test Example 5: herbicidal effect by foliage application, plastic box (symbol L). The data set is classed as in vivo. The note with it: 320 g/ha, 3 weeks after application. The essentials: as §2
Data set [10] concerns Abutilon theophrasti. The data set is described as follows: Test Example 5: herbicidal effect by foliage application, plastic box (symbol M). The data set is classed as in vivo. As to conditions: 320 g/ha, 3 weeks after application. The method, boiled down:
as §2

Data set [11] deals with corn. The data set is described as follows: Test Example 5: effect on crop by foliage application, plastic box (symbol c). The data set is classed as in vivo. As to conditions: 320 g/ha, 3 weeks after application. The essentials: (§3)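 Box culture: sterile diluvial soil, seeds spot-sown, ~1.5 cm cover, raised under glass at 25–30° C.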
The test system of data set [12] is soybean. The experiment in a line: Test Example 5: effect on crop by foliage application, plastic box (symbol d). The data set is classed as in vivo. The note with it: 320 g/ha, 3 weeks after application. The essentials:
as §3

For data set [13], the system named is rapeseed. The data set is described as follows: Test Example 5: effect on crop by foliage application, plastic box (symbol g). The data set is classed as in vivo. The note with it: 320 g/ha, 3 weeks after application. The essentials: as §3
Data set [14] deals with Veronica persica. The data set is described as follows: Test Example 4: herbicidal effect by soil treatment (symbol R). As to conditions: application herbicide amount 320 g/ha. The class given is in vivo. The method, boiled down: as §1

For `CON=C(C)CC1CC(O)=C(c2c(C)cc(Br)cc2C)C1=O` (centres unmarked) [6-003], the melting point (usually the temperature of the solid-liquid transition) was 164 to 166 °C. In data set [1], the “Herbicidal effect grade, C: Monochoria vaginalis” value (shortened to “Herbicidal effect grade, C”) is 1 (Herbicidal ratio of 5% or higher and lower than 20%). Further, the “Herbicidal effect grade, C” value in data set [2] was 3 (Herbicidal ratio of 40% or higher and lower than 70%). For the same compound, the “effect on crop b (directly sowed rice plant), grade 0-5” value (“effect on crop b” for short) in data set [3] was 5 (Herbicidal ratio of 90% or more (almost completely withered)). In addition, the “G: Setaria viridis, herbicidal effect grade” value (shortened to “G: Setaria viridis”) in data set [4] is reported as 5 (Herbicidal ratio of 90% or more (almost completely withered)). Moreover, in data set [5], the “I: Avena fatua, herbicidal effect grade” value is 3 (Herbicidal ratio of 40% or higher and lower than 70%). The “O: Chenopodium album, herbicidal effect grade” value (“O: Chenopodium album” below) in [6] is on record as 0 (Herbicidal ratio of 5% or lower (almost no effect)). For the same compound, the “f: beet, effect on crop grade” value in [7] is on record as 0 (Herbicidal ratio of 5% or lower (almost no effect)). The “H: Echinochloa crus-galli var. crus-galli, herbicidal effect grade” value in data set [8] is given as 5 (Herbicidal ratio of 90% or more (almost completely withered)). Further, the “L: Apera spica-venti, herbicidal effect grade” value (“L: Apera spica-venti” below) in data set [9] is listed as 5 (Herbicidal ratio of 90% or more (almost completely withered)). The “M: Abutilon theophrasti, herbicidal effect grade” value (“M: Abutilon theophrasti” below) in [10] is 3 (Herbicidal ratio of 40% or higher and lower than 70%). Besides, the “c: corn, effect on crop grade” value in data set [11] was 5 (Herbicidal ratio of 90% or more (almost completely withered)). Also, in data set [12], the “d: soybean, effect on crop grade” value was 3 (Herbicidal ratio of 40% or higher and lower than 70%). Besides, in [13], the “g: rapeseed, effect on crop grade” value was 4 (Herbicidal ratio of 70% or higher and lower than 90%).
As for `CCc1cc(C)cc(C)c1C1=C(O)CC(CC(C)=NOC)C1=O` (centres unmarked) [6-007], the melting point lay in the range of 122 to 125 °C. The “Herbicidal effect grade, C” value in [1] is 1 (Herbicidal ratio of 5% or higher and lower than 20%). In addition, the “Herbicidal effect grade, C” value in data set [2] is 2 (Herbicidal ratio of 20% or higher and lower than 40%). The “effect on crop b” value in [3] is recorded as 5 (Herbicidal ratio of 90% or more (almost completely withered)). In addition, the “G: Setaria viridis” value in data set [4] is on record as 5 (Herbicidal ratio of 90% or more (almost completely withered)). In data set [5], the “I: Avena fatua, herbicidal effect grade” value is 4 (Herbicidal ratio of 70% or higher and lower than 90%). In addition, in data set [6], the “O: Chenopodium album” value is 0 (Herbicidal ratio of 5% or lower (almost no effect)). In addition, the “f: beet, effect on crop grade” value in [7] is reported as 0 (Herbicidal ratio of 5% or lower (almost no effect)). Further, in [8], the “H: Echinochloa crus-galli var. crus-galli, herbicidal effect grade” value was 5 (Herbicidal ratio of 90% or more (almost completely withered)). For the same compound, in data set [9], the “L: Apera spica-venti” value was 4 (Herbicidal ratio of 70% or higher and lower than 90%). Besides, the “M: Abutilon theophrasti” value in data set [10] was 1 (Herbicidal ratio of 5% or higher and lower than 20%). For the same compound, the “c: corn, effect on crop grade” value in [11] is listed as 5 (Herbicidal ratio of 90% or more (almost completely withered)). The “d: soybean, effect on crop grade” value in data set [12] was 2 (Herbicidal ratio of 20% or higher and lower than 40%).
Compound `CON=C(C)CC1CC(O)=C(c2c(C)cc(-c3ccccc3)cc2C)C1=O` (centres unmarked) [6-015] displayed a melting point of 167 to 169 °C. Moreover, the “Herbicidal effect grade, C” value in data set [1] was 5 (Herbicidal ratio of 90% or more (almost completely withered)). Further, the “Herbicidal effect grade, C” value in data set [2] was 5 (Herbicidal ratio of 90% or more (almost completely withered)). Also, the “effect on crop b” value in [3] is 5 (Herbicidal ratio of 90% or more (almost completely withered)). The “G: Setaria viridis” value in data set [4] is on record as 5 (Herbicidal ratio of 90% or more (almost completely withered)). Besides, the “I: Avena fatua, herbicidal effect grade” value in data set [5] was 0 (Herbicidal ratio of 5% or lower (almost no effect)). In [6], the “O: Chenopodium album” value was 3 (Herbicidal ratio of 40% or higher and lower than 70%). Besides, the “f: beet, effect on crop grade” value in [7] was 0 (Herbicidal ratio of 5% or lower (almost no effect)). The “H: Echinochloa crus-galli var. crus-galli, herbicidal effect grade” value in data set [8] is reported as 5 (Herbicidal ratio of 90% or more (almost completely withered)). Also, the “L: Apera spica-venti” value in data set [9] was 5 (Herbicidal ratio of 90% or more (almost completely withered)). The “M: Abutilon theophrasti” value in data set [10] is 2 (Herbicidal ratio of 20% or higher and lower than 40%). For the same compound, in data set [11], the “c: corn, effect on crop grade” value is on record as 5 (Herbicidal ratio of 90% or more (almost completely withered)). For the same compound, the “d: soybean, effect on crop grade” value in [12] is 3 (Herbicidal ratio of 40% or higher and lower than 70%). Also, in [13], the “g: rapeseed, effect on crop grade” value is 4 (Herbicidal ratio of 70% or higher and lower than 90%).
With `CON=C(C)CC1CC(O)=C(c2c(C)cc(OCC(F)(F)F)cc2C)C1=O` (centres unmarked) [6-049], the melting point fell in the range of 165 to 172 °C. Further, in data set [1], the “Herbicidal effect grade, C” value is 4 (Herbicidal ratio of 70% or higher and lower than 90%). Besides, in [2], the “Herbicidal effect grade, C” value is 3 (Herbicidal ratio of 40% or higher and lower than 70%). Besides, the “effect on crop b” value in data set [3] is 5 (Herbicidal ratio of 90% or more (almost completely withered)). The “G: Setaria viridis” value in [4] was 5 (Herbicidal ratio of 90% or more (almost completely withered)). For the same compound, the “I: Avena fatua, herbicidal effect grade” value in data set [5] is listed as 5 (Herbicidal ratio of 90% or more (almost completely withered)). For the same compound, the “O: Chenopodium album” value in [6] is 4 (Herbicidal ratio of 70% or higher and lower than 90%). For the same compound, the “R: Veronica persica, herbicidal effect grade” value in data set [14] was 4 (Herbicidal ratio of 70% or higher and lower than 90%). Besides, in data set [7], the “f: beet, effect on crop grade” value is 3 (Herbicidal ratio of 40% or higher and lower than 70%). For the same compound, the “H: Echinochloa crus-galli var. crus-galli, herbicidal effect grade” value in [8] is given as 5 (Herbicidal ratio of 90% or more (almost completely withered)). Besides, the “L: Apera spica-venti” value in data set [9] is on record as 5 (Herbicidal ratio of 90% or more (almost completely withered)). In addition, the “M: Abutilon theophrasti” value in [10] is 3 (Herbicidal ratio of 40% or higher and lower than 70%). The “c: corn, effect on crop grade” value in [11] is on record as 5 (Herbicidal ratio of 90% or more (almost completely withered)). Also, in data set [12], the “d: soybean, effect on crop grade” value is 2 (Herbicidal ratio of 20% or higher and lower than 40%). Besides, the “g: rapeseed, effect on crop grade” value in data set [13] is 5 (Herbicidal ratio of 90% or more (almost completely withered)).
